# Where a SMILES comes first, the peptide text is derived from it.
# Test system: Aβ plaques
# Assay: 4G8 immunohistochemistry, Aβ plaque density
# Assay type: in vivo, mouse
# Details: HC and CTX; 5 mg∙kg^−1 i.p., six months; five animals per group
# Protocol: For this study, three-month-old male and female WT and APP/PS1 mice (n = 37) were used. Four groups were defined: WT-vehicle (physiological saline) (male n = 4; female n = 6), WT-P33 (male n = 6; female n = 5), APP/PS1-vehicle (male n = 3; female n = 5), and APP/PS1-P33 (male n = 6; female n = 2). Animals were subjected to intraperitoneal (i.p.) injections of P33 (5 mg∙kg^−1) for five days per week, over a course of six months. The mice were kept in groups under constant temperature (23 ± 0.5 °C), lighting (12-h/12-h light/dark cycle, lights on at 7:00 a.m.), and humidity (~50%). Standard mouse chow and tap water were supplied ad libitum. All behavioral experiments were performed in the light period. Handling was done daily at the same time.
# Mice (five animals per group) were anaesthetized with chloral-hydrate (1 mg∙kg^−1) and perfused transcardially with PBS, followed by ice-cold 4% paraformaldehyde. The brains were removed, post-fixed in the same fixative, and immersed in a 30% sucrose solution containing 0.01% sodium-azide. […]
# Slides were scanned by a digital slide scanner (Mirax Midi, 3DHistech Ltd., Budapest, Hungary), equipped with a Pannoramic Viewer 1.15.4, CaseViewer 2.1 program and a QuantCenter, HistoQuant module (3DHistech Ltd., Budapest, Hungary). For quantification, all of the sections were analyzed. […] Antibody-positive cell types from the ROIs were counted and quantified. […]
structure (smiles),measurement,value
C[C@@H](N)C(=O)N1CCC[C@@H]1C(=O)N[C@H](C)C(=O)N1CCC[C@@H]1C(=O)N[C@H](CCC(=O)O)C(N)=O [P33] (HELM PEPTIDE1{[dA].[dP].[dA].[dP].[dE].[am]}$$$$V2.0),"Aβ plaque density, effect of P33 (in words)",significantly decreased the plaque density in APP/PS1-P33 mice

# — article PMC6627374, “Effects of the Pentapeptide P33 on Memory and Synaptic Plasticity in APP/PS1 Transgenic Mice: A Novel Mechanism Presenting the Protein Fe65 as a Target” (International Journal of Molecular Sciences, 2019)
